What was measured:
[1] = Receptor-saturating levels of compound maintained in dosed EAE guinea pigs; type: in vivo; details: 30 mg/kg twice a day, subcutaneously, guinea pig
Description: Treatment Regimes. N-[N-(3-pyridinesulfonyl)-L-3,3-dimethyl-4-thiaprolyl]-O-[1-methylpiperazin-4-ylcarbonyl]-L-tyrosine isopropyl ester is a small molecule that binds with high affinity to human and guinea pig 4 integrin (IC50 for inhibition of cell adhesion to VCAM=1 nm). Disease in animals was considered chronic by day 40 post immunization, and thus the treatment period began at this time, and lasted for 10, 20, 30 or 40 days. Animals received either 0.5 mL saline (vehicle for N-[N-(3-pyridinesulfonyl)-L-3,3-dimethyl-4-thiaprolyl]-O-[1-methylpiperazin-4-ylcarbonyl]-L-tyrosine isopropyl ester; n=20) or 30 mg/kg N-[N-(3-pyridinesulfonyl)-L-3,3-dimethyl-4-thiaprolyl]-O-[1-methylpiperazin-4-ylcarbonyl]-L-tyrosine isopropyl ester (n=25) twice a day. With the dosing regimen, receptor saturation levels of N-[N-(3-pyridinesulfonyl)-L-3,3-dimethyl-4-thiaprolyl]-O-[1-methylpiperazin-4-ylcarbonyl]-L-tyrosine isopropyl ester (>10 nm) were maintained at all times. One subgroup of animals received N-[N-(3-pyridinesulfonyl)-L-3,3-dimethyl-4-thiaprolyl]-O-[1-methylpiperazin-4-ylcarbonyl]-L-tyrosine isopropyl ester for 30 days, and then treatment was withdrawn and the animals were maintained for an additional 10 days (n=5). All treatments were administered subcutaneously.
Treatment Regimes. Animals that met both treatment criteria were treated for intervals of 10, 20, 30 or 40 days. […]

[2] = test system: brain and spinal cord of EAE guinea pigs; assay: Chronic EAE: histology and blinded pathological scoring of brain and spinal cord sections (H-E, SCR); type: in vivo, guinea pig
Description: Animal Sacrifice and Histological Analysis. Untreated, chronic EAE animals (n=5) were sacrificed on day 40, as well as non-EAE controls (n=5). Following each 10-day treatment interval, 5 animals from each group were sacrificed (0.25 mL sodium pentobarbital), blood samples were collected for FACS analysis (see below), and the brain and spinal cord dissected and sectioned. Three spinal sections were used, corresponding to lumbar, thoracic and cervical regions of the cord. The brain was cut into five transverse sections. The first three proximal sections were combined in one block, and the last two distal sections in another. Tissues were fixed in 10% formalin and embedded in paraffin. […] sections were stained with hematoxylin-eosin (H-E) or solochrome-R-cyanlin (SCR) and evaluated by a blinded observer in each of four categories: (1) meningeal inflammation, (2) perivascular infiltration, (3) encephalitis or (4) myelitis and demyelination (Table 6). The combined pathological score represents the total score (out of a potential 20) from all 5 CNS sections in each animal.

[3] = test system: spinal cord lesions of paralyzed EAE guinea pigs; assay: Example 2: spontaneous remyelination in chronic EAE (SCR, toluidine blue, EM, lesion area analysis, motor function); type: in vivo, guinea pig
[4] = test system: guinea pig model of CP-EAE; assay: Remyelination and motor function in guinea pig CP-EAE; type: in vivo
Description: The number of lesions showing myelin pallor was divided by the total number of lesions within cross sections of spinal cord taken throughout its length from each animal (FIG. 10) (for the method see Warrington et al., 2000, Proc. Nat'l Acad. Sci. USA 97: 6820-5). […] In contrast, after 20 days of N-[N-(3-pyridinesulfonyl)-L-3,3-dimethyl-4-thiaprolyl]-O-[1-methylpiperazin-4-ylcarbonyl]-L-tyrosine isopropyl ester administration, the frequency of shadow plaques in the spinal cord was increased over saline-treated animals, reaching 68%; after 30 and 40 days, the incidence was 77% and 87%, respectively (p<0.001, 2-way ANOVA with Tukey test).
The overall degree of plaque remyelination in the spinal cord was also measured. […] Total lesion area was determined for each animal by tracing all lesions within all spinal cord sections and summing the areas. Likewise, the total area of remyelination was measured by tracing regions of myelin pallor. FIGS. 10C-F plot the total lesion area against the percentage of remyelination. In saline-treated animals, lesions rarely show any evidence of repair, with means ranging between 2 and 11%, and there were no significant differences over the 40-day treatment period (FIGS. 10C-F). In contrast, after 20, 30 or 40 days of N-[N-(3-pyridinesulfonyl)-L-3,3-dimethyl-4-thiaprolyl]-O-[1-methylpiperazin-4-ylcarbonyl]-L-tyrosine isopropyl ester treatment, the majority of lesions identified show a variable degree of remyelination ranged from 2 to 100% in the majority of lesions (mean area of remyelination approximately 50%) (FIGS. 10D-5). (p<0.001, 2-way ANOVA with Tukey test). Therefore while lesions were evident in all animals throughout the 40-day treatment period, N-[N-(3-pyridinesulfonyl)-L-3,3-dimethyl-4-thiaprolyl]-O-[1-methylpiperazin-4-ylcarbonyl]-L-tyrosine isopropyl ester increased the incidence and percentage of remyelination. Furthermore, evidence of remyelination in N-[N-(3-pyridinesulfonyl)-L-3,3-dimethyl-4-thiaprolyl]-O-[1-methylpiperazin-4-ylcarbonyl]-L-tyrosine isopropyl ester-treated animals is consistent with an observed regain of motor function. The starting point for treatment was a clinical score of 2, which denotes full bilateral hind limb paralysis. […] Functional recovery was never observed in control animals.

[5] = test system: guinea pig model of CP-EAE; details: with increasing duration of treatment; Piraino et al., 2002; cited from earlier work

**Q.** For `CC(C)OC(=O)[C@H](Cc1ccc(OC(=O)N2CCN(C)CC2)cc1)NC(=O)[C@H]1N(S(=O)(=O)c2cccnc2)CSC1(C)C` [N-[N-(3-pyridinesulfonyl)-L-3,3-dimethyl-4-thiaprolyl]-O-[1-methylpiperazin-4-ylcarbonyl]-L-tyrosine isopropyl ester], which “receptor saturation levels maintained at all times” value [1] is on record?
**A.** Its value is greater than 10 nm.

**Q.** And the “mean pathological score in each of four categories versus saline” value ([2]; meningeal inflammation, perivascular infiltration, encephalitis/myelitis, demyelination, p<0.001 two-way ANOVA)?
**A.** Its value is “significant decrease”.

**Q.** What about the “mean combined pathological score after withdrawal for 10 days versus continued treatment” value ([2]; p<0.05 Kruskal Wallis) of the same molecule?
**A.** The value was “significantly higher”.

**Q.** What about the “spinal cord histology after 20 days of treatment (day 60)” value ([2]; versus saline) of the same molecule?
**A.** Its value is “much smaller areas of demyelination”.

**Q.** And the “spinal cord histology after 40 days of treatment (day 80)” value ([2]; versus saline)?
**A.** The value was “almost no meningeal and perivascular infiltration”.

**Q.** What about the “myelin repair, share of the total lesion area” value ([3]; 30 mg/kg twice daily s.c.) of the same molecule?
**A.** Its value is 50%.

**Q.** What about the “SCR-stained spinal cord after 10 days of treatment” value ([3]; 10 days) of the same molecule?
**A.** The value was “minimal evidence of myelin pallor”.

**Q.** And the “SCR-stained spinal cord lesions after 20 days of treatment” value ([3]; 20 days)?
**A.** The value was “many lesions exhibited diffuse pale blue staining”.

**Q.** What about the “SCR-stained spinal cord lesions after 40 days of treatment” value ([3]; 40 days) of the same molecule?
**A.** The value was “presented as shadow plaques”.

**Q.** And the “plaques showing evidence of remyelination” value ([3]; after 40 days of treatment, 30 mg/kg twice daily s.c.)?
**A.** The value was 87%.

**Q.** What about the “semithin and EM sections of lesions” value ([3]; day 30 of treatment) of the same molecule?
**A.** Its value is “multiple thin myelin layers around large caliber axons”.

**Q.** And the “animals that regained motor function” value ([3]; paralyzed guinea pigs, clinical score 2 at start)?
**A.** The value was 50%.

**Q.** And the “mean area of remyelination” value ([4]; after 20, 30 or 40 days of treatment)?
**A.** The value was “approximately 50%”.

**Q.** What about the “percentage of plaques exhibiting evidence of remyelination (frequency of shadow plaques in the spinal cord)” value ([4]; after 20 days of administration) of the same molecule?
**A.** Its value is 68%.

**Q.** What about the “percentage of plaques exhibiting evidence of remyelination (incidence)” value ([4]; after 30 days) of the same molecule?
**A.** Its value is 77%.

**Q.** What about the “percentage of plaques exhibiting evidence of remyelination (incidence)” value ([4]; after 40 days) of the same molecule?
**A.** The value was 87%.

**Q.** What about the “treated animals in which paralysis was reversed to a clinical score of 1” value ([4]; treatment started at clinical score of 2) of the same molecule?
**A.** Its value is 50%.

**Q.** What about the “immune cell infiltrates and associated inflammatory mediators” value [5] of the same molecule?
**A.** Its value is “progressively reduce immune cell infiltrates”.

Source: patent publication US20050069541A1, “Composition for and treatment of demyelinating diseases and paralysis by administration of remyelinating agents” (priority 2003, published 2005)
